This is an account of results in patent publication US20140213538A1, “LYSOPHOSPHATIDIC ACID RECEPTOR ANTAGONISTS” (InterMune, Inc., priority 2013, published 2014).

One test deals with LPA1 (Homo sapiens, UniProt Q92633). In words: LPA1 Migration Assay (Oris). Type of test: cell-based. The arrangement: host or cells: primary fibroblasts (lung, dermal), HFL-1, 3T3 and CHO cells expressing LPA1R. Particulars: read-out: Cell Migration EC50. The source says:
LPA1 Migration Assay Migration of primary fibroblasts (including lung, dermal), HFL-1, 3T3 and CHO cells expressing LPA1R were monitored using the Oris™ assay (Platypus Technologies, Madison, Wis.). These cells were dye (Cell Tracker Green™) loaded and serum starved for 12-24 hrs. In response to chemoattractants such as LPA and serum, the cells migrated inward in to the exclusion (detection) zone. After fixing, fluorescent cells in the detection zone were counted using a high content reader. The ability of LPA1 antagonists to inhibit cell migration is quantified by plotting cell number vs. compound concentration and curve fitting the resulting dose-response curve to a 4 parameter logistic function.

Another test concerns the target T1, LPA/S1P GPCR of interest (Homo sapiens, UniProt Q92633).
T1 construct: host or cells: CHO
Description: Beta-Arrestin based assay (PathHunter). Type of test: cell-based. Put shortly: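 EA Parental CHO cells (DiscoverX) were transfected with FuGENE (Roche) using CMV promoter-driven DNA constructs encoding the LPA/S1P GPCR of interest fused to a ProLink tag. Beta-arrestin recruitment in agonist mode was assessed 24-48 hrs later with PathHunter kits. Tests ran in quadruplicate in white 384 well plates, and end point luminescence was fit to a 4 parameter logistic function.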

Bounds are passed on as bounds.

T1 sequence (Q92633 whole entry): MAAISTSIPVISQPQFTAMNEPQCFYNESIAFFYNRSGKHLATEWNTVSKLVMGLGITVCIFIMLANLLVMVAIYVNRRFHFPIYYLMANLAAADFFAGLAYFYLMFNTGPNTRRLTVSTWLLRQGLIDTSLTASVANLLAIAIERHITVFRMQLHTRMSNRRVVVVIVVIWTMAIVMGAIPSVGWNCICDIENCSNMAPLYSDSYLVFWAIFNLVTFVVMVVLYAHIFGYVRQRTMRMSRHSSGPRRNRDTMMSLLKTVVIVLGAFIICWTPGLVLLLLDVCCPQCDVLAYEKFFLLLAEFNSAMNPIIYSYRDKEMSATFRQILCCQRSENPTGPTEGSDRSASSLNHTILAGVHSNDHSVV
Chain of LPA1 (Q92633 whole entry): as above

On to `Cc1noc(-c2ccc(-c3ccc(Oc4cc(F)ccc4C(=O)O)cc3)cc2)c1NC(=O)O[C@H](C)c1ccccc1` [IT467], for which the values for the EC50 on LPA1 and at LPA/S1P GPCR of interest were 50 to 500 nM and under 50 nM, respectively.

For the molecule `Cc1nsc(-c2cc3sc(-c4ccc(CC(=O)O)cc4F)cc3s2)c1NC(=O)O[C@H](C)c1ccccc1` [IT135], the EC50 is over 500 nM on LPA1 and 50 to 500 nM at LPA/S1P GPCR of interest.

For `Cc1nsc(-c2ccc(-c3cc(F)c(Oc4ccsc4C(=O)O)c(F)c3)cc2)c1NC(=O)O[C@H](C)c1ccccc1` [IT462], the EC50 on LPA1 and at LPA/S1P GPCR of interest was under 50 nM each time.

As for `Cc1noc(-c2ccc(-c3ccc(S(=O)(=O)N4CCCC4)cc3)cc2)c1NC(=O)O[C@H](C)c1ccccc1` [IT153], the EC50 on LPA1 and at LPA/S1P GPCR of interest was over 500 nM each time.

Regarding `Cc1noc(-c2ccc(-c3ccc(S(N)(=O)=O)cc3)cc2)c1NC(=O)O[C@H](C)c1ccccc1` [IT129], the EC50 at LPA1 is over 500 nM; at LPA/S1P GPCR of interest it was 50 to 500 nM.

For `Cc1noc(-c2ccc(C#Cc3ccccc3C(=O)O)cc2)c1NC(=O)O[C@H](C)c1ccccc1` [IT154], the EC50 at LPA1 and at LPA/S1P GPCR of interest was over 500 nM each time.

As to `C[C@@H](OC(=O)Nc1c(C#Cc2cc3sc(C4(C(=O)O)CC4)cc3s2)cnn1C)c1c(F)c(F)c(F)c(F)c1F` [IT118], the EC50 on LPA1 and at LPA/S1P GPCR of interest was over 500 nM throughout.

Regarding `Cc1nnn(-c2ccc(-c3cc(F)c(Oc4ccncc4C(=O)O)c(F)c3)cc2)c1NC(=O)O[C@H](C)c1ccccc1` [IT440], the EC50 at LPA1 was over 500 nM; at LPA/S1P GPCR of interest, 50 to 500 nM.

`Cc1noc(-c2ccc(-c3ccc(NS(C)(=O)=O)cc3)cc2)c1NC(=O)O[C@H](C)c1ccccc1` [IT195]: the EC50 on LPA1 was over 500 nM; on LPA/S1P GPCR of interest, 50 to 500 nM.

Take `Cc1nsc(-c2cc3sc(-c4ccc(CC(=O)O)cc4)cc3s2)c1NC(=O)O[C@H](C)c1ccccc1` [IT133]: the EC50 at LPA1 is over 500 nM; on LPA/S1P GPCR of interest, 50 to 500 nM.

Consider `Cc1nsc(-c2cc3sc(-c4cc(F)c(CC(=O)O)c(F)c4)cc3s2)c1NC(=O)O[C@H](C)c1ccccc1` [IT156], for which the EC50 is over 500 nM on LPA1 and 50 to 500 nM at LPA/S1P GPCR of interest.

Regarding `Cc1nsc(-c2ccc(-c3cc(F)c(Oc4cccnc4C(=O)O)c(F)c3)cc2)c1NC(=O)O[C@H](C)c1ccccc1` [IT464], the EC50 on LPA1 is 50 to 500 nM; at LPA/S1P GPCR of interest, under 50 nM.

Turning to `Cc1noc(-c2ccc(-c3cc(F)c(Oc4ccsc4C(=O)O)c(F)c3)cc2)c1NC(=O)O[C@H](C)c1ccccc1` [IT463], the EC50 at LPA1 and on LPA/S1P GPCR of interest was under 50 nM each time.

As to `C[C@@H](OC(=O)Nc1c(-c2cc3sc(-c4ccc(CC(=O)O)c(Cl)c4)cc3s2)cnn1C)c1ccccc1` [IT165], the EC50 at LPA1 was over 500 nM; at LPA/S1P GPCR of interest, 50 to 500 nM.

Regarding `C[C@@H](OC(=O)Nc1c(-c2ccc(-c3cc(F)c(OC4(C(=O)O)CC4)c(F)c3)cc2)cnn1C)c1ccccc1` [IT314], the EC50 at LPA1 was over 500 nM; on LPA/S1P GPCR of interest, under 50 nM.

Consider `CNS(=O)(=O)c1ccc(-c2ccc(-c3onc(C)c3NC(=O)O[C@H](C)c3ccccc3)cc2)cc1` [IT128], for which the EC50 at LPA1 and at LPA/S1P GPCR of interest was over 500 nM in each case.

Take `Cc1onc(-c2cc3sc(C#CC4(C(=O)O)CC4)cc3s2)c1NC(=O)O[C@H](C)c1ccccc1` [IT418]: the EC50 is 50 to 500 nM on LPA1 and under 50 nM at LPA/S1P GPCR of interest.

Turning to `C[C@@H](OC(=O)Nc1c(-c2ccc(-c3ccc(OC4(C(=O)O)CC4)cc3)cc2)cnn1C)c1ccccc1` [IT511], the EC50 on LPA1 is 50 to 500 nM; at LPA/S1P GPCR of interest it was under 50 nM.

As for `C[C@@H](OC(=O)Nc1c(C#Cc2cc(F)c(OC3(C(=O)O)CC3)c(F)c2)cnn1C)c1ccccc1` [IT311], the EC50 at LPA1 and at LPA/S1P GPCR of interest was 50 to 500 nM each time.

As to `Cc1noc(-c2ccc(-c3ccc(OC(C)(C)C(=O)O)c(F)c3)cc2)c1NC(=O)O[C@H](C)c1ccccc1` [IT506], the results for the EC50 on LPA1 and on LPA/S1P GPCR of interest were 50 to 500 nM and under 50 nM, respectively.

Take `C[C@@H](OC(=O)Nc1c(-c2ccc(-c3ccc(Oc4ccc(F)cc4C(=O)O)cc3)cc2)cnn1C)c1ccccc1` [IT461]: the results for the EC50 on LPA1 and at LPA/S1P GPCR of interest were 50 to 500 nM and under 50 nM, respectively.

With `Cc1noc(-c2cc3cc4sc(CC(=O)O)cc4cc3s2)c1NC(=O)O[C@H](C)c1ccccc1` [IT499], the EC50 at LPA1 and on LPA/S1P GPCR of interest was over 500 nM in each case.

Take `C[C@@H](OC(=O)Nc1c(-c2cc3sc(-c4ccc(CC(=O)O)cc4N)cc3s2)cnn1C)c1ccccc1` [IT180]: the EC50 on LPA1 and at LPA/S1P GPCR of interest was over 500 nM each time.

For `C[C@@H](OC(=O)Nc1c(-c2ccc(-c3ccc(Oc4cc(F)ccc4C(=O)O)cc3)cc2)cnn1C)c1ccccc1` [IT469], the EC50 was 50 to 500 nM on LPA1 and under 50 nM at LPA/S1P GPCR of interest.

With `C[C@@H](OC(=O)Nc1c(-c2cc3sc(-c4ccc(CC(=O)O)cc4F)cc3s2)cnn1C)c1ccccc1` [IT134], the EC50 is over 500 nM at LPA1 and 50 to 500 nM on LPA/S1P GPCR of interest.

Take `C[C@@H](OC(=O)Nc1c(-c2ccc(-c3ccc(CC(=O)O)s3)cc2)nnn1C)c1ccccc1` [IT178]: the values for the EC50 on LPA1 and on LPA/S1P GPCR of interest were over 500 nM and 50 to 500 nM, respectively.

In the case of `CCOC(=O)c1cccnc1Oc1c(F)cc(-c2ccc(-c3nnn(C)c3NC(=O)O[C@H](C)c3ccccc3)cc2)cc1F` [IT476], the results for the EC50 on LPA1 and at LPA/S1P GPCR of interest were over 500 nM and under 50 nM, respectively.

Take `Cc1nsc(-c2ccc(-c3ccc(CC(=O)O)s3)cc2)c1NC(=O)O[C@H](C)c1ccccc1` [IT141]: the EC50 on LPA1 and at LPA/S1P GPCR of interest was over 500 nM throughout.

`C[C@@H](OC(=O)Nc1c(-c2cc3sc(-c4ccc(CC(=O)O)cc4)cc3s2)nnn1C)c1ccccc1` [IT160]: the EC50 at LPA1 and at LPA/S1P GPCR of interest was 50 to 500 nM in each case.

For `C[C@@H](OC(=O)Nc1c(-c2cc3sc(-c4cnc(C5(C(=O)O)CC5)s4)cc3s2)nnn1C)c1ccccc1` [IT189], the EC50 at LPA1 was over 500 nM; at LPA/S1P GPCR of interest, 50 to 500 nM.

Turning to `Cc1noc(-c2ccc(-c3ccc(Oc4ncn(C)c4C(=O)O)cc3)cc2)c1NC(=O)O[C@H](C)c1ccccc1` [IT486], the results for the EC50 at LPA1 and at LPA/S1P GPCR of interest were over 500 nM and 50 to 500 nM, respectively.

Take `C[C@@H](OC(=O)Nc1c(-c2cc3sc(-c4ccc5[nH]cc(CC(=O)O)c5c4)cc3s2)cnn1C)c1ccccc1` [IT188]: the EC50 on LPA1 is over 500 nM; on LPA/S1P GPCR of interest, 50 to 500 nM.

`Cc1nnn(-c2ccc(-c3cc(F)c(Oc4cccnc4C(=O)O)c(F)c3)cc2)c1NC(=O)O[C@H](C)c1ccccc1` [IT437]: the results for the EC50 at LPA1 and at LPA/S1P GPCR of interest were 50 to 500 nM and under 50 nM, respectively.

Consider `Cc1noc(-c2cc3sc(-c4cc(F)c(OC5(C(=O)O)CC5)c(F)c4)cc3s2)c1NC(=O)O[C@H](C)c1ccccc1` [IT488], for which the EC50 on LPA1 and on LPA/S1P GPCR of interest was 50 to 500 nM throughout.

As for `Cc1noc(-c2ccc(-c3ccc(S(=O)(=O)C4CC4)cc3)cc2)c1NC(=O)O[C@H](C)c1ccccc1` [IT173], the EC50 on LPA1 and at LPA/S1P GPCR of interest was over 500 nM in each case.

Regarding `C[C@@H](OC(=O)Nc1c(-c2ccc(-c3ccc(OC4(C(=O)O)CC4)cc3)cc2)oc2ccccc12)c1ccccc1` [IT512], the figures for the EC50 at LPA1 and at LPA/S1P GPCR of interest were over 500 nM and 50 to 500 nM, respectively.

On to `Cc1nnn(-c2ccc(-c3ccc(Oc4cccc(F)c4C(=O)O)cc3)cc2)c1NC(=O)O[C@H](C)c1ccccc1` [IT457], for which the values for the EC50 at LPA1 and on LPA/S1P GPCR of interest were over 500 nM and 50 to 500 nM, respectively.

Regarding `C[C@@H](OC(=O)Nc1c(-c2cc(F)c(-c3ccc(C4(C(=O)O)CC4)cc3)cc2F)oc2ncccc12)c1ccccc1` [IT096], the EC50 at LPA1 is 50 to 500 nM; at LPA/S1P GPCR of interest it was under 50 nM.
